Assay results published in US20220184143A1, “COMPOSITIONS AND METHODS OF MODULATING CASOTRANSMITTER SIGNALING” (CASE WESTERN RESERVE UNIVERSITY, priority 2019, published 2022).

Columns and labels:
AGO2 [1] = target: T1, AGO2 (Homo sapiens, UniProt Q9UKV8); experiment: AGO2 immunoblot following SNO-RAC in HEK293 cells; type: cell-based; parameters: endogenous in cells; host or cells: HEK293
Method: S-nitrosylated proteins were isolated by SNO-RAC as described. In brief, cells were lysed in HEN buffer additionally containing 1% NP-40, 50 mM NaCl and protease inhibitors. Free cysteines were blocked with S-Methyl methanethiosulfonate (MMTS). After acetone precipitation and multiple 70% acetone washes, proteins were re-suspended in HEN buffer containing 1% SDS. 50 μl thiopropyl Sepharose 6B resin (GE, Chicago, Ill.) and 50 mM sodium ascorbate were added, followed by rotation in the dark for 4 hr at room temperature. Following multiple washes, the bound proteins were eluted in 2×SDS-PAGE loading buffer containing 10% β-mercaptoethanol. Following separation on reducing pre-cast 4-20% SDS-PAGE gels (Bio-Rad Laboratories, Hercules, Calif.), individual SNO-proteins were detected by Western blotting using specific antibodies (anti-FLAG, anti-myc, anti-ALG-1, anti-AGO2, anti-GW182) or the gel was stained using the SilverQuest™ silver staining kit (ThermoFisher Scientific, Waltham, Mass.) or Imperial™ Protein Stain (ThermoFisher Scientific, Waltham, Mass.), per manufacturer instructions.
Transfected HEK293 or HeLa cells were cultured at 37° C. in 15 cm tissue culture-treated dishes. They were then treated with either 500 μM DETA-NOate (t1/2=20 hr) for 16 hours, 100 μM CysNO for 10 min, or 200 μM dipropylenetriamine (DPTA)-NONOate (Cayman Chemicals, Ann Arbor, Mich.) for 6 hours. […]

AGO2 and GW182 = target: T2, AGO2 and GW182 (Homo sapiens, UniProt Q9UKV8); experiment: Co-immunoprecipitation of AGO2 and GW182 in HEK293 cells; type: cell-based
T2 construct: host or cells: HEK293
T2 sequence (Q9UKV8 whole entry): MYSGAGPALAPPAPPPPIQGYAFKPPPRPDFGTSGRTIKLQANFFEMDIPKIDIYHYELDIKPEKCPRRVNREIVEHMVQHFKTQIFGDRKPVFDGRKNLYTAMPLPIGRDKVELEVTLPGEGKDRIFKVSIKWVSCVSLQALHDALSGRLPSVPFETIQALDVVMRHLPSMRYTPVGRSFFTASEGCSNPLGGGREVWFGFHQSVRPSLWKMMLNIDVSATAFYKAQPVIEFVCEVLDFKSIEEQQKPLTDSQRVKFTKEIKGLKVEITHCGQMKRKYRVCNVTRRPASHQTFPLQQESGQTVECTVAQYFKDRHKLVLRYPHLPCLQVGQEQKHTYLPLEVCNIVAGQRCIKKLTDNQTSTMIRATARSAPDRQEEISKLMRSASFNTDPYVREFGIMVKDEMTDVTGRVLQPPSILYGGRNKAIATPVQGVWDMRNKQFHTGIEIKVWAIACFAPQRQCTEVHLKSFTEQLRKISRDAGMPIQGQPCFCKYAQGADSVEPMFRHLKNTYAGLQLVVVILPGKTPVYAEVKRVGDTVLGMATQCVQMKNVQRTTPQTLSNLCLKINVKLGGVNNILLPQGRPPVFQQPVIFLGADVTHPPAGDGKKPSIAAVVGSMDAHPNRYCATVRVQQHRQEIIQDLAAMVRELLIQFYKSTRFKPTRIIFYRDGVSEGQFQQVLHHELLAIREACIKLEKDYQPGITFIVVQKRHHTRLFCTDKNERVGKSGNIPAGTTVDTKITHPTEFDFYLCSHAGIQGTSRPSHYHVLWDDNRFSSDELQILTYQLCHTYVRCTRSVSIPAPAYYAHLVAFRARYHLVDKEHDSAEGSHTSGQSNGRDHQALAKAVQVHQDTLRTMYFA
Method: Transfected HEK293 or HeLa cells were cultured at 37° C. in 15 cm tissue culture-treated dishes. They were then treated with either 500 μM DETA-NOate (t1/2=20 hr) for 16 hours, 100 μM CysNO for 10 min, or 200 μM dipropylenetriamine (DPTA)-NONOate (Cayman Chemicals, Ann Arbor, Mich.) for 6 hours. Cells were washed once with DPBS without calcium chloride and magnesium chloride from Gibco® (Life Technologies, Carlsbad, Calif.) and incubated on ice for 10 minutes in IP lysis/wash buffer (ThermoFisher Scientific, Waltham, Mass.) with added EDTA-free protease inhibitor tablet (Roche, Basel, Switzerland). This was followed by centrifugation at 14,000 g for 10 minutes to collect the supernatant. The lysates were then used for immunoprecipitation experiments.
For HEK293 cells, all steps were performed either on ice or in the cold room at 4° C. Immunoprecipitations (IP) were performed with 3 mg of total lysate that was pre-cleared using a Pierce™ control agarose resin (ThermoFisher Scientific, Waltham, Mass.), after which 10 μg of IP antibody was added, and samples were incubated overnight at 4° C. with rotation. The next day, 30 μl of protein A/G Sepharose (ThermoFisher Scientific, Waltham, Mass.) was added and the samples were incubated for 2 hours at 4° C. […] The eluates were neutralized by adding 3 μl of 1M Tris-HCl, pH 8.0 and analyzed by western blotting. […]

AGO2 [2] = target: T3, AGO2 (Homo sapiens, UniProt Q9UKV8, C691S); experiment: let-7 luciferase reporter miRNA activity assay in HeLa cells; type: cell-based; details: C691S AGO2, Hmga2 3'UTR reporter
T3 construct: expressed in transfected cells; host or cells: HeLa
T3 sequence (Q9UKV8 whole entry C691S): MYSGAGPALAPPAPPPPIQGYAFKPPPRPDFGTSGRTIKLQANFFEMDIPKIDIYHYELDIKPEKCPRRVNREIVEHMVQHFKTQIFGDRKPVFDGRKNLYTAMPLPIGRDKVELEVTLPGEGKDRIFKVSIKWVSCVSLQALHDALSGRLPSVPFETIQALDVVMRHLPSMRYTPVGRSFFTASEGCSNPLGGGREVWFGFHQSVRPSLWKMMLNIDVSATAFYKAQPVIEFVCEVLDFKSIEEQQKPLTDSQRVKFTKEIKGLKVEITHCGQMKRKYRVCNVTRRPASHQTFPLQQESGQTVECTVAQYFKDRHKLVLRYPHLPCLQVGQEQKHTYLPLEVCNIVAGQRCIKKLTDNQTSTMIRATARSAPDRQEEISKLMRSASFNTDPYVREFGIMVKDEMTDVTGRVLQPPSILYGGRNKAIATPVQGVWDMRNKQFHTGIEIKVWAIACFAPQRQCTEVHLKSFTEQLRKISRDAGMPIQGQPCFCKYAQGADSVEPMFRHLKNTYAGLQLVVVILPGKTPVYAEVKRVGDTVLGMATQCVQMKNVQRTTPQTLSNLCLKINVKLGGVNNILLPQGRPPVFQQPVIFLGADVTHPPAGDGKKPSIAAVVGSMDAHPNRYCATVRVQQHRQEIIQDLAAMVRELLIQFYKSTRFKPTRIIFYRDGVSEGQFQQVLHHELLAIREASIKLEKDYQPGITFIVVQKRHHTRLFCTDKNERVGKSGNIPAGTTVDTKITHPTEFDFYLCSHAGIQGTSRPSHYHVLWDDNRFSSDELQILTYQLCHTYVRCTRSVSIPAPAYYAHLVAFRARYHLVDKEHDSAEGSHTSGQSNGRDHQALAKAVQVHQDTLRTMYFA
Method: (§1) 0.5×10^5 cells/well Hela cells were plated in wells of 24 well dishes. They were transiently transfected the next day with 2 μg of either WT-AGO2 or C691S-AGO2, plus 100 ng of either Hmga2 3′UTR-WT luciferase (Luc-wt) or Hmga2 3′UTR-mutant7 luciferase (Luc-m7) control. 100 ng pMax-GFP was also co-transfected to normalize for transfection efficiency. Transfections were carried out using Lipofectamine® 2000 transfection reagent (ThermoFisher Scientific, Waltham, Mass.). Six hours after transfection, the NO donor DETA-NONOate (Cayman Chemicals, Ann Arbor, Mich.) was added at 500 μM. The cells were harvested 24 hours post-transfection, using 1× Passive Lysis Buffer (Promega, Madison, Wis.). Renilla luciferase activity was measuredusing the Renilla Luciferase Assay System (Promega, Madison, Wis.) and a Veritas™ microplate luminometer (Turner BioSystems, Sunnyvale, Calif.) and normalized to GFP readings measured using a BMG FluoStar Galaxy microplate reader. Hmga2 3′UTR WT luciferase (Luc-wt) and Hmga2 3′UTR m7 luciferase (Luc-m7) were gifts from David Bartel (Addgene plasmid #14785 and #14788, respectively)).

[3] = cited from earlier work
AGO2 [4] = target: T1, AGO2; experiment: let-7 luciferase reporter miRNA activity assay in HeLa cells; type: cell-based; parameters: expressed in transfected cells; host or cells: HeLa; details: WT AGO2, Hmga2 3'UTR reporter
Method: as §1

T1 sequence (Q9UKV8 whole entry): as the sequence (Q9UKV8 whole entry) above

| SMILES | S-nitrosylation of WT AGO2 (AGO2 [1]; HEK293 cells transfected with WT AGO2, 100 μM) | association of WT AGO2 with GW182 (AGO2 and GW182; co-immunoprecipitation, transfected HEK293 cells) | interaction between endogenous AGO2 and GW182 (AGO2 and GW182; cultured mammalian cells) | S-nitrosylation of AGO2 by endogenous eNOS (AGO2 [1]; HEK293 cells, 500 μM) | mutant C691S AGO2 activity (AGO2 [2]) | t1/2 [3] [h] | WT AGO2 repression of luciferase target (AGO2 [4]) |
| --- | --- | --- | --- | --- | --- | --- | --- |
| N[C@@H](CSN=O)C(=O)O [CysNO, S-nitrosocysteine] | strongly S-nitrosylated | – | – | – | – | – | – |
| NCCN(CCN)/[N+]([O-])=N/O [DETA-NO, DETA-NONOate] | – | strongly inhibited | inhibited | enhanced | little effect | 20 | repressed its target poorly |
